Source: PMC7252647, “Inhibition of the NAD salvage pathway in schistosomes impairs metabolism, reproduction, and parasite survival” (PLoS Pathogens, 2020)

Test system: T1, native SmNACE
T1 construct: native ectoenzyme on the outer tegument of live adult worms (2 male + 2 female per well)
Assay: fluorimetric NAD glycohydrolase assay on live adult worms, ε-ADPR release
Format: cell-based, Schistosoma mansoni
Settings: ε-NAD substrate (20 μM in the assay), live worms (2 male + 2 female) in 200 μl HBSS, 37 °C
From the text: fluorimetric NAD glycohydrolase assay on live adult worms, ε-ADPR release on native SmNACE | The IC50 of CMP1 on live parasites is indicated.

## Cc1occc1C(=O)N/N=C\c1ccc(O)c(O)c1 [CMP1, (Z)-N′-(3,4-Dihydroxybenzylidene)-2-methylfuran-3-carbohydrazide]
  IC50: 78 µM
